Reference: patent publication US5696263A, “Antiviral acyclic phosphonomethoxyalkylsubstituted alkenyl and alkynyl purine and pyrimidine derivatives” (Institute of Organic Chemistry and Biochemistry of the …, priority 1994, dated 1997)
Like-named read-outs stand apart in the source and are kept apart here.

Assays:
[1] = test system: human immunodeficiency virus LA BRU strain; assay: XTT assay, anti-HIV activity with LAV BRU strain; type: cell-based; settings: HIV LAV BRU strain (footnote e), read-out: ED50 (the source's name)
Protocol: (§1) Compounds were evaluated for activity against human immunodeficiency virus (HIV RF strain obtained from Luc Montagnier, Institut Pasteur, Paris, France) in CEM-SS cells (P. L. Nara, et al., in AIDS Res. Human. Retroviruses, 1987, 3, 283-302) using the XTT assay described by O. S. Weislow, et al., in J. Natl. Cancer Instit., 1989, 81, 577-586. CEM-SS cells were obtained from Owen Weislow at the National Cancer Institute. Cells were exposed to HIV and cultured in microtiter plates in the presence of test compounds at concentrations of 0.32, 1, 3.16, 10, 31.6, 100, 316 and 1000 um. On day six post-infection, the antiviral effect was measured using the XTT assay in which an optical density (OD) reading is obtained at each drug concentration. The optical density reading is proportional to the number of viable cells. The relative optical density values were derived by dividing the sample observed optical density by the value obtained for the control. Assays run in infected cells show the antiviral effect of the test compounds, where an increase in the number of viable cells (higher OD reading) reflects the protective, antiviral activity of the compound. Assays run in uninfected cells provide a measure of cellular toxicity.
(§2) The antiviral effect is also expressed (see Table 1) as the concentration of compound which increases the number of viable cells in infected cultures to 50%, to that of the untreated, uninfected control cultures (ED50). The cellular toxicity is expressed as the concentration of compound which reduces the number of viable cells to 50%, to that of the untreated control (TD50). The selectivity index (SI) is the ratio of TD50 to ED50.
(§3) ^a Effective Dose 50: In infected cells, concentration of compound
(§4) which results in an increase in the number of viable cells to 50% to that
^e The compounds were evaluated using human immunodeficiency virus LA
BRU strain obtained from Luc Montagnier, Institut Pasteur, Paris, France.

CEM-SS cells [2] = assay: XTT assay, cellular toxicity in uninfected CEM-SS cells; type: cell-based; settings: compounds evaluated with HIV LAV BRU strain (footnote e), 8640 min, read-out: TD50 (the source's name)
[3] = test system: human immunodeficiency virus (HIV RF strain) in CEM-SS cells; assay: XTT assay, anti-HIV RF activity in infected CEM-SS cells, six days post infection; type: cell-based; settings: for SI (Selectivity Index: Ratio of TD50 to ED50): HIV RF; for SI (Selectivity Index: Ratio of TD50 to ED50) / EC50: CEM-SS cells; for EC50: Human immunodeficiency virus 1, CEM-SS, 144 h, HIV RF strain, XTT assay, six days post infection, read-out: ED50 (the source's name); for anti-HIV potency and selectivity as compared to the other compounds: data in Table 1; for cell protection against HIV: over a broad concentration range
Protocol: as §1, §2
(§5) The anti-HIV activity and cellular toxicity of the test compounds are plotted in FIGS. 1-7 as a function of relative optical density versus increasing log concentrations of the test compounds (XTT assay). FIGS. 1-7 visually show the results of the relative anti-HIV activity of the test compounds on infected cells (--.circle-solid.--) and the cellular toxicity of the same test compound on uninfected cells (--.rect-solid.--).
Another estimate of the effectiveness of a compound for use against HIV in the prevention and/or treatment of AIDS is a selectivity index (an in vitro "therapeutic index"), the ratio of the toxic dose 50 to the effective dose 50. The selectivity index (SI) for (RS), (R)- and (S)-2'-vinyl-PMEG and (RS), (R), (S), -2'-azidomethyl-PMEG of the instant invention and for the comparison compound PMEG are shown in Table 1.
Anti-HIV RF Activity in CEM-Cells Evaluated by XTT Assay
Six Days Post Infection
as §3, §4
^c Selectivity Index: Ratio of TD50 to ED50.

[4] = XTT assay, cellular toxicity in uninfected CEM-SS cells; type: cell-based; settings: human, cem-ss cells
Protocol: as §1, §2, §5
(§6) ^b Toxic Dose 50: In uninfected cells, concentration of compound whic
(§7) results in a 50% decrease of viable cells.

CEM-SS cells [5] = assay: as above; type: cell-based
Protocol: as §1, §2, §5, §6, §7

[6] = cell growth inhibition assay in CEM-SS cells; type: cell-based; settings: human, cem-ss cells; 50 percent decrease in cell count vs control at day three (72 hours)
Protocol: (§8) The cytotoxicity of PMEG, (R)2'-vinyl-PMEG, (S)-2'-vinyl-PMEG and (R)-2'-azidomethyl-PMEG was also determined by the cell growth inhibition assay in CEM-SS cells.
(§9) *CC50 is the concentration of drug that causes a 50 percent decrease in
(§10) cell count as compared to the control at day three (72 hours).
(§11) 1. Choose proper range of the concentrations of the drug to be evaluated.
(§12) 2. Prepare the stock solutions of drugs in RPMI 1640 medium at 10× of the highest concentration needed in cell culture
(§13) 3. Make serial dilution of the 10× stock solutions with RPMI 1640 as needed, usually four different concentrations are used for each drug.
(§14) 4. Prepare CEM cell suspension at @5×10^4 cells/ml concentration
(§15) 5. To each 18 ml CEM cell suspension add 2 ml of properly diluted drug solution (from step 2 and 3) separately and mix well.
(§16) 6. For cell control, 2 ml of RPMI 1640 is added in place of the drug solutions.
(§17) 7. Two ml of the solutions from step 5 and 6 are dispensed in to the wells of 24-well plate as shown in the following diagram [drawing 14] 8. At time zero, cells in 4 wells from the control (no drug added) are counted
(§18) 9. At 24, 48, 72 and 96 hr post drug addition, both drug treated and control cells are counted
(§19) 10. All assay are done in duplicate, two 24-well plates are set up for each drug
(§20) 11. Cell counts obtained from drug treated cultures are compared to those from control cultures.
(§21) 12. The concentration of drug that causes a 50 percent of decrease of cell number as compared to the control at day three (72 hr) is assigned as the CC50 value of the drug.

CEM-SS cells [7] = assay: cell growth inhibition assay in CEM-SS cells; type: cell-based; settings: values of Table 2
Protocol: as §8, §9, §10, §11, §12, §13, §14, §15, §16, §17, §18, §19, §20, §21

Moloney sarcoma virus = settings: experimental animals; cited from earlier work
murine leukemia virus = settings: experimental animals; cited from earlier work
[8] = test system: simian immunodeficiency virus (SIV); settings: experimental animals; cited from earlier work
HIV = settings: in tissue cultures; cited from earlier work
[9] = test system: human immunodeficiency virus HTLVIIIB strain and MT2 cells; assay: anti-HIV activity, HTLVIIIB strain in MT2 cells (Southern Research Institute); type: cell-based; settings: Southern Research Institute (footnote g), read-out: ED50 (the source's name)
Protocol: as §3, §4
(§22) ^g The compound was evaluated by Southern Research Institute using
(§23) human immunodeficiency virus HTLVIIIB strain and MT2 cells (S. Harada, et

MT2 cells = assay: cellular toxicity in uninfected MT2 cells (Southern Research Institute); type: cell-based; settings: Southern Research Institute (footnote g), read-out: TD50 (the source's name)
Protocol: as §6, §7, §22, §23

With [N-]=[N+]=NC[C@H](Cn1ccc(N)nc1=O)OCP(=O)(O)O [(S)-2'-azidomethyl-PMEC, (S)-9-[3-azido-2-(phosphonomethoxy)propyl]cytosine] the EC50 ([1]; 8640 min) was over 500 µM and the CC50 (CEM-SS cells [2]) was over 500 µM.

In the case of C=CC(Cn1cnc2c(=O)[nH]c(N)nc21)OCP(=O)(O)O (racemic) [(R,S)-2'vinyl-PMEG, (RS)-9-[2-(phosphonomethoxy)-3-butenyl]guanine], the “SI (Selectivity Index: Ratio of TD50 to ED50)” value [3] is reported as over 51, the EC50 [3] is reported as 19.6 µM and the CC50 at 144 h [4] is reported as over 1000 µM.

C=C[C@@H](Cn1ccc(N)nc1=O)OCP(=O)(O)O [(S)-2'-vinyl-PMEC, (S)-9-[2-(phosphonomethoxy)-3-butenyl]cytosine] showed an EC50 ([1]; 8640 min) of over 500 µM and a CC50 (CEM-SS cells [2]) of over 500 µM.

In the case of [N-]=[N+]=NC[C@H](Cn1cnc2c(=O)[nH]c(N)nc21)OCP(=O)(O)O [(S)-2'-azidomethyl-PMEG, (S)-9-[3-azido-2-(phosphonomethoxy)propyl]guanine], the “SI (Selectivity Index: Ratio of TD50 to ED50)” value [3] is reported as over 20, the EC50 [3] is reported as 51 µM and the CC50 at 144 h [4] is reported as over 1000 µM.

For Nc1nc2c(ncn2CCOCP(=O)(O)O)c(=O)[nH]1 [PMEG, 9-[2-(phosphonomethoxy)ethyl]guanine, reference compound], the “anti-HIV effect in CEM-SS cells” value ([3]; FIG. 7) was “some anti-HIV effect”, the “SI (Selectivity Index: Ratio of TD50 to ED50)” value [3] was 30 and the EC50 [3] was 0.2 µM. The CC50 at 144 h [4] was 15 µM, the cellular toxicity (CEM-SS cells [5]) was “cellular toxicity of PMEG prevents protection from the virus” and the CC50 at 72 h [6] was 2.4 µM.

For C=C[C@H](Cn1cnc2c(O)nc(N)nc21)OCP(=O)(O)O [(R)-2'-vinyl-PMEG, (R)-9-[2-(phosphonomethoxy)-3-butenyl]guanine], the “protection from the human immunodeficiency virus in CEM-SS cells” value ([3]; concentration range of 5 to 100 μM, FIG. 1) was “complete protection”, the “anti-HIV potency and selectivity as compared to the other compounds” value [3] was “potent and selective anti-HIV agents” and the “cell protection against HIV” value [3] was “cell protection against HIV over a broad concentration”. For the same compound, the CC50 at 144 h [4] was over 1000 µM, the observable cytotoxicity (CEM-SS cells [5]) was “no observable cytotoxicity” and the CC50 at 72 h [6] was 1600 µM. The “toxicity in CEM-SS cells when compared to PMEG” value (shortened to “toxicity … compared to PMEG”) (CEM-SS cells [7]) was “relatively non-toxic”.

[N-]=[N+]=NCC[C@@H](Cn1cnc2c(O)nc(N)nc21)OCP(=O)(O)O [(S)-2'-azidoethyl-PMEG, (S)-9-[4-azido-2-(phosphonomethoxy)butyl]guanine] gave a CC50 at 144 h [4] of over 500 µM and an EC50 ([1]; Human immunodeficiency virus 1, CEM-SS, 144 h) of over 500 µM.

In the case of Nc1ncnc2c1ncn2CCOCP(=O)(O)O [PMEA], the “effect on Moloney sarcoma virus” value (Moloney sarcoma virus) is listed as “proven its effect”, the “effect on murine leukemia virus” value (murine leukemia virus) is listed as “proven its effect” and the “effect on simian immunodeficiency virus (SIV)” value [8] is listed as “proven its effect”. For the same compound, the “effect on HIV” value (HIV) was “proven its effect”.

With Cc1cn(C[C@@H](CN=[N+]=[N-])OCP(=O)(O)O)c(=O)[nH]c1=O [(S)-2'-azidomethyl-PMET, (S)-9-[3-azido-2-(phosphonomethoxy)propyl]thymine] the EC50 [9] was over 500 µM and the CC50 (MT2 cells) was over 500 µM.

With [N-]=[N+]=NC[C@@H](Cn1cnc2c(O)nc(N)nc21)OCP(=O)(O)O [(R)-2'-azidomethyl-PMEG, (R)-9-[3-azido-2-(phosphonomethoxy)propyl]guanine] the “SI (Selectivity Index: Ratio of TD50 to ED50)” value [3] was over 200, the EC50 [3] was 5 µM and the “anti-HIV potency and selectivity as compared to the other compounds” value [3] was “potent and selective anti-HIV agents”. For the same compound, the “cell protection against HIV” value [3] was “cell protection against HIV over a broad concentration”, the CC50 at 144 h [4] was over 1000 µM and the observable cytotoxicity (CEM-SS cells [5]) was “no observable cytotoxicity”. The CC50 at 72 h [6] was 1400 µM and the “toxicity … compared to PMEG” value (CEM-SS cells [7]) was “relatively non-toxic”.

Work on [N-]=[N+]=NCC[C@@H](Cn1ccc(N)nc1=O)OCP(=O)(O)O [(S)-2'-azidoethyl-PMEC, (S)-9-[4-azido-2-(phosphonomethoxy)butyl]cytosine] yielded an EC50 ([1]; 8640 min) of over 500 µM and a CC50 (CEM-SS cells [2]) of over 500 µM.

With C=C[C@@H](Cn1cnc2c(O)nc(N)nc21)OCP(=O)(O)O [(S)-2'-vinyl-PMEG, (S)-9-[2-(phosphonomethoxy)-3-butenyl]guanine] the “protection from HIV in CEM-SS cells” value ([3]; at 100 μM, FIG. 2) was “complete protection”, the CC50 at 72 h [6] was 1600 µM and the “toxicity … compared to PMEG” value (CEM-SS cells [7]) was “relatively non-toxic”.

For [N-]=[N+]=NCC(Cn1cnc2c(=O)[nH]c(N)nc21)OCP(=O)(O)O (racemic) [(R,S)-2'-azidomethyl-PMEG, (RS)-9-[3-azido-2-(phosphonomethoxy)propyl]guanine], the “SI (Selectivity Index: Ratio of TD50 to ED50)” value [3] was over 125, the EC50 [3] was 8 µM and the CC50 at 144 h [4] was over 1000 µM.
